{"source": "patent US6395896B2", "about": "“Pyridazine derivatives, manufacturing method and related composition” (Shiseido Co., Ltd., priority 1999, dated 2002)", "test": "Colorant stabilization effect (photostabilizer, sunlight exposure)", "design": "key to Sunlight exposure (80 MJ) Appearance: A: No change; B: No almost change; C: Yes change; key to Sunlight exposure (80 MJ) ΔE: ΔE color difference (Lab) vs. color before sunlight exposure", "protocol": "First of all, the photostabilization effect and appearance change of a composition in each pigment were studied by the following evaluation formulation.\nEach test sample was prepared. Observation of appearance change (visual evaluation) and measurement of color difference (ΔE) were carried out in samples exposed to sunlight exposure (around 80 MJ).\nColor difference was measured by Lab coordinate system with spectrophotometer. Color difference was calculated on the basis of the color before sunlight exposure. Namely, from measured value (L1,a1,b1) before sunlight exposure, color difference (ΔE) was calculated by following formula.", "key": {"[1]": {"details": "Red No. 227 0.0001 wt % + Yellow No. 5 0.0001 wt %, photostabilizer 0.05 wt %"}, "[2]": {"details": "Red No. 227 0.0001 wt % + Yellow No. 5 0.0001 wt %, photostabilizer 0.1 wt %"}, "[3]": {"details": "Red No. 227 0.0001 wt % + Yellow No. 203 0.0001 wt %, photostabilizer 0.05 wt %"}, "[4]": {"details": "Red No. 227 0.0001 wt % + Yellow No. 203 0.0001 wt %, photostabilizer 0.1 wt %"}, "[5]": {"details": "Red No. 227 0.0001 wt % + Yellow No. 203 0.0001 wt %, photostabilizer 0.3 wt %"}, "[6]": {"details": "Red No. 227 0.0001 wt %, photostabilizer 0.02 wt %"}, "[7]": {"details": "Red No. 227 0.0001 wt %, photostabilizer 0.05 wt %"}, "[8]": {"details": "Red No. 227 0.0001 wt %, photostabilizer 0.1 wt %"}, "[9]": {"details": "Red No. 401 0.0001 wt % + Blue No. 1 0.00001 wt %, photostabilizer 0.03 wt %"}, "[10]": {"details": "Red No. 401 0.0001 wt % + Blue No. 1 0.00001 wt %, photostabilizer 0.05 wt %"}, "[11]": {"details": "Red No. 401 0.0001 wt % + Blue No. 1 0.00001 wt %, photostabilizer 0.1 wt %"}, "[12]": {"details": "Red No. 401 0.0001 wt % + Green No. 3 0.00001 wt %, photostabilizer 0.03 wt %"}, "[13]": {"details": "Red No. 401 0.0001 wt % + Green No. 3 0.00001 wt %, photostabilizer 0.05 wt %"}, "[14]": {"details": "Red No. 401 0.0001 wt % + Green No. 3 0.00001 wt %, photostabilizer 0.3 wt %"}, "[15]": {"details": "Red No. 401 0.0001 wt %, photostabilizer 0.05 wt %"}, "[16]": {"details": "Red No. 401 0.0001 wt %, photostabilizer 0.1 wt %"}, "[17]": {"details": "Red No. 401 0.0001 wt %, photostabilizer 0.3 wt %"}, "[18]": {"details": "Red No. 401 0.001 wt %, photostabilizer 0.03 wt %"}, "[19]": {"details": "Red No. 401 0.001 wt %, photostabilizer 0.05 wt %"}, "[20]": {"details": "Red No. 401 0.001 wt %, photostabilizer 0.1 wt %"}, "[21]": {"details": "Yellow No. 5 0.0001 wt %, photostabilizer 0.05 wt %"}, "[22]": {"details": "Yellow No. 5 0.0001 wt %, photostabilizer 0.1 wt %"}, "[23]": {"details": "Yellow No. 5 0.0001 wt %, photostabilizer 0.3 wt %"}, "[24]": {"details": "Yellow No. 5 0.001 wt %, photostabilizer 0.01 wt %"}, "[25]": {"details": "Yellow No. 5 0.001 wt %, photostabilizer 0.05 wt %"}, "[26]": {"details": "Yellow No. 5 0.001 wt %, photostabilizer 0.1 wt %"}, "[27]": {"details": "Yellow No. 203 0.0001 wt % + Yellow No. 5 0.0001 wt %, photostabilizer 0.03 wt %"}, "[28]": {"details": "Yellow No. 203 0.0001 wt % + Yellow No. 5 0.0001 wt %, photostabilizer 0.05 wt %"}, "[29]": {"details": "Yellow No. 203 0.0001 wt % + Yellow No. 5 0.0001 wt %, photostabilizer 0.1 wt %"}, "[30]": {"details": "Yellow No. 203 0.0001 wt %, photostabilizer 0.05 wt %"}, "[31]": {"details": "Yellow No. 203 0.0001 wt %, photostabilizer 0.1 wt %"}, "[32]": {"details": "Yellow No. 203 0.0001 wt %, photostabilizer 0.3 wt %"}, "[33]": {"details": "Yellow No. 203 0.001 wt %, photostabilizer 0.02 wt %"}, "[34]": {"details": "Yellow No. 203 0.001 wt %, photostabilizer 0.05 wt %"}, "[35]": {"details": "Yellow No. 203 0.001 wt %, photostabilizer 0.1 wt %"}}}
{"smiles": "Oc1nncc(N2CCOCC2)c1N1CCOCC1", "note": "[4,5-Dimorpholino-3-hydroxypyridazine]", "values": [{"measurement": "Sunlight exposure (80 MJ) ΔE", "setting": "Red No. 227 0.0001 wt % + Yellow No. 5 0.0001 wt %, photostabilizer 0.03 wt %", "result": 0.72}, {"measurement": "Sunlight exposure (80 MJ) Appearance", "setting": "[1]", "result": "A"}, {"measurement": "Sunlight exposure (80 MJ) ΔE", "setting": "[1]", "result": 0.59}, {"measurement": "Sunlight exposure (80 MJ) Appearance", "setting": "[2]", "result": "A"}, {"measurement": "Sunlight exposure (80 MJ) ΔE", "setting": "[2]", "result": 0.18}, {"measurement": "Sunlight exposure (80 MJ) Appearance", "setting": "[3]", "result": "A"}, {"measurement": "Sunlight exposure (80 MJ) ΔE", "setting": "[3]", "result": 0.78}, {"measurement": "Sunlight exposure (80 MJ) Appearance", "setting": "[4]", "result": "A"}, {"measurement": "Sunlight exposure (80 MJ) ΔE", "setting": "[4]", "result": 0.35}, {"measurement": "Sunlight exposure (80 MJ) Appearance", "setting": "[5]", "result": "A"}, {"measurement": "Sunlight exposure (80 MJ) ΔE", "setting": "[5]", "result": 0.14}, {"measurement": "Sunlight exposure (80 MJ) Appearance", "setting": "[6]", "result": "A"}, {"measurement": "Sunlight exposure (80 MJ) ΔE", "setting": "[6]", "result": 0.71}, {"measurement": "Sunlight exposure (80 MJ) Appearance", "setting": "[7]", "result": "A"}, {"measurement": "Sunlight exposure (80 MJ) ΔE", "setting": "[7]", "result": 0.49}, {"measurement": "Sunlight exposure (80 MJ) Appearance", "setting": "[8]", "result": "A"}, {"measurement": "Sunlight exposure (80 MJ) ΔE", "setting": "[8]", "result": 0.22}, {"measurement": "Sunlight exposure (80 MJ) Appearance", "setting": "[9]", "result": "A"}, {"measurement": "Sunlight exposure (80 MJ) ΔE", "setting": "[9]", "result": 0.95}, {"measurement": "Sunlight exposure (80 MJ) Appearance", "setting": "[10]", "result": "A"}, {"measurement": "Sunlight exposure (80 MJ) ΔE", "setting": "[10]", "result": 0.32}, {"measurement": "Sunlight exposure (80 MJ) Appearance", "setting": "[11]", "result": "A"}, {"measurement": "Sunlight exposure (80 MJ) ΔE", "setting": "[11]", "result": 0.07}, {"measurement": "Sunlight exposure (80 MJ) Appearance", "setting": "[12]", "result": "A"}, {"measurement": "Sunlight exposure (80 MJ) ΔE", "setting": "[12]", "result": 0.98}, {"measurement": "Sunlight exposure (80 MJ) Appearance", "setting": "[13]", "result": "A"}, {"measurement": "Sunlight exposure (80 MJ) ΔE", "setting": "[13]", "result": 0.73}, {"measurement": "Sunlight exposure (80 MJ) Appearance", "setting": "[14]", "result": "A"}, {"measurement": "Sunlight exposure (80 MJ) ΔE", "setting": "[14]", "result": 0.14}, {"measurement": "Sunlight exposure (80 MJ) Appearance", "setting": "[15]", "result": "A"}, {"measurement": "Sunlight exposure (80 MJ) ΔE", "setting": "[15]", "result": 0.82}, {"measurement": "Sunlight exposure (80 MJ) Appearance", "setting": "[16]", "result": "A"}, {"measurement": "Sunlight exposure (80 MJ) ΔE", "setting": "[16]", "result": 0.56}, {"measurement": "Sunlight exposure (80 MJ) Appearance", "setting": "[17]", "result": "A"}, {"measurement": "Sunlight exposure (80 MJ) ΔE", "setting": "[17]", "result": 0.19}, {"measurement": "Sunlight exposure (80 MJ) Appearance", "setting": "[18]", "result": "A"}, {"measurement": "Sunlight exposure (80 MJ) ΔE", "setting": "[18]", "result": 0.95}, {"measurement": "Sunlight exposure (80 MJ) Appearance", "setting": "[19]", "result": "A"}, {"measurement": "Sunlight exposure (80 MJ) ΔE", "setting": "[19]", "result": 0.71}, {"measurement": "Sunlight exposure (80 MJ) Appearance", "setting": "[20]", "result": "A"}, {"measurement": "Sunlight exposure (80 MJ) ΔE", "setting": "[20]", "result": 0.45}, {"measurement": "Sunlight exposure (80 MJ) Appearance", "setting": "[21]", "result": "A"}, {"measurement": "Sunlight exposure (80 MJ) ΔE", "setting": "[21]", "result": 0.59}, {"measurement": "Sunlight exposure (80 MJ) Appearance", "setting": "[22]", "result": "A"}, {"measurement": "Sunlight exposure (80 MJ) ΔE", "setting": "[22]", "result": 0.71}, {"measurement": "Sunlight exposure (80 MJ) Appearance", "setting": "[23]", "result": "A"}, {"measurement": "Sunlight exposure (80 MJ) ΔE", "setting": "[23]", "result": 0.22}, {"measurement": "Sunlight exposure (80 MJ) Appearance", "setting": "[24]", "result": "A"}, {"measurement": "Sunlight exposure (80 MJ) ΔE", "setting": "[24]", "result": 0.61}, {"measurement": "Sunlight exposure (80 MJ) Appearance", "setting": "[25]", "result": "A"}, {"measurement": "Sunlight exposure (80 MJ) ΔE", "setting": "[25]", "result": 0.43}, {"measurement": "Sunlight exposure (80 MJ) Appearance", "setting": "[26]", "result": "A"}, {"measurement": "Sunlight exposure (80 MJ) ΔE", "setting": "[26]", "result": 0.22}, {"measurement": "Sunlight exposure (80 MJ) Appearance", "setting": "[27]", "result": "A"}, {"measurement": "Sunlight exposure (80 MJ) ΔE", "setting": "[27]", "result": 0.52}, {"measurement": "Sunlight exposure (80 MJ) Appearance", "setting": "[28]", "result": "A"}, {"measurement": "Sunlight exposure (80 MJ) ΔE", "setting": "[28]", "result": 0.37}, {"measurement": "Sunlight exposure (80 MJ) Appearance", "setting": "[29]", "result": "A"}, {"measurement": "Sunlight exposure (80 MJ) ΔE", "setting": "[29]", "result": 0.12}, {"measurement": "Sunlight exposure (80 MJ) Appearance", "setting": "[30]", "result": "A"}, {"measurement": "Sunlight exposure (80 MJ) ΔE", "setting": "[30]", "result": 0.22}, {"measurement": "Sunlight exposure (80 MJ) Appearance", "setting": "[31]", "result": "A"}, {"measurement": "Sunlight exposure (80 MJ) ΔE", "setting": "[31]", "result": 0.10}, {"measurement": "Sunlight exposure (80 MJ) Appearance", "setting": "[32]", "result": "A"}, {"measurement": "Sunlight exposure (80 MJ) ΔE", "setting": "[32]", "result": 0.05}, {"measurement": "Sunlight exposure (80 MJ) Appearance", "setting": "[33]", "result": "A"}, {"measurement": "Sunlight exposure (80 MJ) ΔE", "setting": "[33]", "result": 0.25}, {"measurement": "Sunlight exposure (80 MJ) Appearance", "setting": "[34]", "result": "A"}, {"measurement": "Sunlight exposure (80 MJ) ΔE", "setting": "[34]", "result": 0.18}, {"measurement": "Sunlight exposure (80 MJ) Appearance", "setting": "[35]", "result": "A"}, {"measurement": "Sunlight exposure (80 MJ) ΔE", "setting": "[35]", "result": 0.08}, {"measurement": "change of appearance of the composition", "setting": "summary of Tables 11 to 13", "result": "small"}, {"measurement": "color difference ΔE", "setting": "summary of Tables 11 to 13", "result": "very small in comparison with other photostabilizers"}]}
